Common to all, as to test: growth of human tumour cells (NCI), 48 h
Assay [1] concerns ACHN renal.
Assay [2] relates to COLO 205 colon.
Assay [3] deals with HL-60(TB) leukemia.
The subject of assay [4] is KM12 colon.
Assay [5] concerns MOLT-4 leukemia.
Assay [6] deals with NCI-H23 lung.
Assay [7] deals with NCI/ADR-RES ovarian.
Assay [8] deals with SF-539 CNS.
Assay [9] concerns T-47D breast.
Assay [10] deals with TK-10 renal.

Structures are written as SMILES.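 96-well plates; 48 h exposure; 5 concentrations. Endpoints by linear interpolation between flanking doses. Not reached: highest tested concentration assigned. GI50: concentration for 50% inhibition of growth. TGI marks complete inhibition of growth.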

Take `Cn1ncc2c(Nc3cccc(Cl)c3)nc(Nc3cccc(Cl)c3)nc21`: the TGI was 29.2 µM in [1]; over 53.8 µM in assay [2]; 44.9 µM in [3]; over 42.2 µM in assay [4]; 47.4 µM in [5]; 57.1 µM in assay [6]. The TGI in assay [7] is 37.3 µM; in [8], 52 µM; in assay [9], 37 µM; in assay [10], 27.9 µM.
As to `COC(=O)C1=COC(OC2OC(CO)C(O)C(O)C2O)C2C3CN4CCc5c([nH]c6ccccc56)C4(CC12)O3` (configuration not stated), the TGI in assay [1], in [2], in assay [3], in assay [4], in [5] and in assay [6] was over 100 µM in each case. The TGI in [7], in [8], in assay [9] and in [10] was over 100 µM throughout.
On to `Cc1c(Cl)nc(Cl)nc1Cl`, for which the TGI was 0.829 µM in assay [1]; 1.15 µM in assay [2]; 6.15 µM in assay [4]; 1.38 µM in assay [5]; 4.64 µM in assay [6]; 4.45 µM in assay [7]. In addition, the TGI was 5.62 µM in assay [8], 4.11 µM in assay [9] and 7.16 µM in [10].
On to `Cc1[nH]c(=O)[nH]c(=O)c1/C=C/C(=O)NC(CO)CS(=O)Cc1ccccc1` (configuration not stated), for which the TGI in assay [2], in assay [3], in [4], in assay [5], in [6] and in assay [7] was over 300 µM in each case. The same compound registered a TGI in assay [8] of over 300 µM.
Consider `c1ccc(C(NC2=NCCO2)c2ccccc2)cc1`, for which the TGI in assay [1], in assay [2], in assay [3], in assay [4], in assay [5] and in assay [6] was over 10 µM each time. Further, the TGI in assay [7], in assay [8], in assay [9] and in assay [10] was over 10 µM in each case.
On to `CC(C)C(=O)CC(c1ccc(Cl)cc1)N1N=C(C(C)C)CC1c1ccc(Cl)cc1` (configuration not stated), for which the TGI in assay [1] is over 100 µM; in assay [2] it was over 100 µM; in assay [3] it was 76.8 µM; in assay [4], over 100 µM; in [5], 83.4 µM; in [6] it was over 100 µM. Also, the TGI in assay [8] is over 42.7 µM; in [10], over 100 µM. Further, the GI50 in assay [5] is 22.4 µM.
Consider `C=CCN1C[C@H](C)N([C@@H](c2ccc(C(=O)N3CCCCC3)cc2)c2cccc(OC)c2)C[C@H]1C`, for which the TGI in [1] was over 100 µM; in [2] it was 30.6 µM; in [3], 21.5 µM; in assay [4], over 100 µM; in assay [5] it was over 100 µM; in [6], over 100 µM. In addition, the TGI was over 100 µM in assay [7], 67.7 µM in assay [8], 76 µM in assay [9] and over 100 µM in assay [10].
For the compound `Cn1ccc(C(=O)NCCN(CCNC(=O)c2ccn(C)c(=O)c2O)CCNC(=O)c2ccn(C)c(=O)c2O)c(O)c1=O`, the TGI in [1], in assay [2], in assay [3], in assay [4], in [6] and in assay [7] was over 100 µM throughout. The TGI in [8], in assay [9] and in [10] was over 100 µM in each case.
In the case of `NNC(=O)CCSc1ccccc1`, the TGI in assay [1], in [2], in assay [3], in [4], in [5] and in assay [6] was over 100 µM in each case. The TGI in assay [7], in [8], in [9] and in [10] was over 100 µM in each case.
For `O=c1/c(=C/c2ccc([N+](=O)[O-])o2)sc2n1[C@@H](c1ccc(Cl)cc1)C=C(c1cc(F)c(Cl)cc1Cl)N=2`, the TGI in [1] was 32.6 µM; in assay [2] it was 16.2 µM; in [3] it was 49.2 µM; in assay [4], over 100 µM; in [5] it was 45.9 µM; in assay [6], 39.4 µM. For the same compound, the TGI was over 100 µM in [7], 69 µM in [8], 52.7 µM in [9] and 36.2 µM in assay [10].
Regarding `CN(C)CCCSc1nc2c(c(=N)n1-c1ccccc1)c(=S)n(-c1ccccc1)c(=S)n2-c1ccccc1`, the TGI in assay [1] amounted to 3.22 µM; in assay [2] it was 3.94 µM; in [3], 1.75 µM; in [4] it was 3.5 µM; in [5] it was 3.28 µM; in [6], 4.45 µM. For the same compound, the TGI in assay [7] was found to be 7.38 µM; in assay [8], 6.95 µM; in assay [9], 4.62 µM; in assay [10], 3.09 µM.
With `COc1cc(/C=N\c2nc(-c3ccc(NS(=O)(=O)c4ccc(Cl)c(OC)c4)cc3)cs2)ccc1O`, the TGI was over 100 µM in assay [1]; over 100 µM in assay [2]; 74 µM in [3]; over 100 µM in assay [4]; over 100 µM in assay [5]; 88.8 µM in assay [6]. The results for the TGI in [7], in assay [8] and in [9] were over 100 µM, over 100 µM and 59.1 µM, respectively.
Consider `COc1ccc(C(O)(c2ccccc2)c2nccc3ccccc23)cc1` (configuration not stated), for which the TGI in assay [1] is over 100 µM; in assay [2] it was over 100 µM; in assay [3] it was over 100 µM; in assay [4], over 100 µM; in assay [5] it was 11.9 µM; in [6], over 100 µM. Also, the TGI in [7], in [9] and in assay [10] was over 100 µM in each case.
